Source: patent US20190083462A1, “PREVENTION OF NSAID ENTEROPATHY WITH MICROBIOTA-DERIVED TRYPTOPHAN-METABOLITE” (THE TEXAS A&M UNIVERSITY SYSTEM, priority 2016, published 2019)

Key:
[1] = system: intestinal epithelial cells; conditions: cited from earlier work
[2] = system: fecal tryptophan metabolites; assay: Fecal tryptophan metabolites by LC-MS; type: in vivo, mice
Text: (§1) Eight- to 10-week-old specific-pathogen-free C57BL/6J mice were purchased and allowed to acclimate for 2 weeks. Mice were fed standardized laboratory rodent diet and sterile water ad libitum. Mice were randomly divided into the following 4 groups (n=5 mice/group): 1) NSAID (indomethacin); 2) indole; 3) NSAID+indole; and, 4) untreated controls. Mice were then rehoused on the basis of treatment group assignment, with 5 animals/group-cage. To induce NSAID enteropathy, mice in group 1 were gavaged once daily with indomethacin (5 mg/kg; for 7 days; Sigma Aldrich, St. Louis, Mo.) dissolved in dimethylysulfoxide (DMSO) (Sigma Aldrich, St. Louis, Mo.) and further diluted in phosphate buffered saline (PBS). Mice in group 2 received indole by gavage (20 mg/kg; once daily for 7 days; Sigma Aldrich, St. Louis, Mo.) dissolved in sterile water warmed to 55° C. Mice in group 3 received indole co-administered with indomethacin by gavage at the dosages described above. All mice were gavaged with equal volumes (200 μL) and equal concentrations of DMSO (0.001%).
Feces were collected daily by placing individual animals in sterile plastic cups that were RNase- and DNase-free until they passed feces. The mice were immediately returned to their home cages and the feces immediately flash frozen at −80° C. All animals were euthanized via CO2 asphyxiation on day 8 (i.e., after 7 days of treatment). The small intestine was harvested, opened longitudinally, rinsed with ice-cold PBS, and the distal ⅓ of the intestinal mucosa was scraped for tissue gene expression analysis. The remaining small intestine was fixed in 4% paraformaldehyde, Swiss-rolled, paraffin-embedded, and stained with hematoxylin and eosin. The spleen and mesenteric lymph nodes (MLN) were harvested, and immediately placed in ice cold RPMI-1640-c+10% fetal calf serum (FCS: Life Technologies, Carlsbad, Calif.), homogenized, and prepared as a single cell suspension for flow cytometric analysis as previously described (Wang N, Strugnell R, Wijburg O, Brodnicki T. Measuring bacterial load and immune responses in mice infected with Listeria monocytogenes. Journal of Visualized Experiments: JoVE 2011).
Metabolites from the fecal contents were extracted using a solvent-based method as previously described (Sridharan G V, Choi K, Klemashevich C, Wu C, Prabakaran D, Pan L B, Steinmeyer S, Mueller C, Yousofshahi M, Alaniz R C, et al. Prediction and quantification of bioactive microbiota metabolites in the mouse gut. Nature Communications 2014; 5:5492). Briefly, fecal pellets were homogenized using a homogenizer (Omni International) with equal volume of cold methanol and half volume of chloroform. The samples were then centrifuged at 10,000 g at 4° C. (Thermo Fisher Scientific) for 10 min. Supernatant was passed through a 70-μm sterile nylon cell strainer (Falcon) and 0.6 ml of ice cold water was added. The samples were vortex and centrifuged again at 10,000 g for 5 minutes. The upper phase and lower phase were collected and 400 μl of upper phase was dried to a pellet using a vacufuge (Eppendorf, Hauppauge, N.Y.), and then reconstituted in 50 μl of methanol/water (1:1, v/v). The samples were stored at −80° C. until analysis. Tryptophan metabolites in the samples were detected and quantified on a triple quadrupole linear ion trap mass spectrometer (3200 QTRAP, AB SCIEX, Foster City, Calif.) coupled to a binary pump HPLC (Prominence LC-20, Shimazu, Concord, Ontario, Canada).

fecal microbiota = assay: Fecal microbiota 16S rRNA sequencing (ANOSIM, SIMPER); type: in vivo, mice; conditions: for mean % abundance: day 7 feces
C57BL/6J mice = assay: Histology and small intestinal morphometric measurements; type: in vivo; conditions: Swiss-rolled H & E stained small intestinal sections, n=5/group
Protocol: Eight- to 10-week-old specific-pathogen-free C57BL/6J mice were purchased and allowed to acclimate for 2 weeks. Mice were fed standardized laboratory rodent diet and sterile water ad libitum. […] Mice were then rehoused on the basis of treatment group assignment, with 5 animals/group-cage. To induce NSAID enteropathy, mice in group 1 were gavaged once daily with indomethacin (5 mg/kg; for 7 days; Sigma Aldrich, St. Louis, Mo.) dissolved in dimethylysulfoxide (DMSO) (Sigma Aldrich, St. Louis, Mo.) and further diluted in phosphate buffered saline (PBS). […] All mice were gavaged with equal volumes (200 μL) and equal concentrations of DMSO (0.001%).
The slides were scored as previously described for intestinal inflammation (Jia Q, Lupton J R, Smith R, Weeks B R, Callaway E, Davidson L A, Kim W, Fan Y Y, Yang P, Newman R A, et al. Reduced colitis-associated colon cancer in Fat-1 (n-3 fatty acid desaturase) transgenic mice. Cancer Research 2008; 68:3985-91). Briefly, mucosal injury was determined by the following parameters scored from 0 (no evidence) to 3 (marked): mucosal ulceration, mucosal erosion, and presence of squamified epithelium. Inflammatory changes were scored similarly based on the following parameters: lymphocytic infiltration, plasma cell infiltration, and neutrophilic infiltration. Finally, an overall evidence of injury score was used to document total injury graded from 0 (none) to 4 (marked). Morphological parameters were obtained from digitally scanned slides using SPOT vr 5.0 software. Three sets of measurements from 3 separate sections were recorded for each animal by an observer blinded to treatment group. Measurements consisted of villus height, crypt depth, and submucosal mural thickness.

small intestinal mucosa = assay: RNA sequencing (RNA-Seq) of the distal small intestinal mucosa; type: in vivo, mice; conditions: indole co-administered with NSAID; degree of up-regulation vs control mice
Text: as §1
Feces were collected daily by placing individual animals in sterile plastic cups that were RNase- and DNase-free until they passed feces. The mice were immediately returned to their home cages and the feces immediately flash frozen at −80° C. […]
RNA was extracted from the mucosal scrapings using an RNeasy mini kit (QIAGEN, Redwood City, Calif.) following the manufacturer's instructions and including on-column DNase treatment. RNA quantity was determined using a Nanodrop spectrophotometer (Fisher Thermoscientific) and the quality was assessed using the Nano6000 chip on a Bioanalyzer 2100(Agilent Technologies). […] Differentially expressed genes were determined using EdgeR based on the matrix of gene counts (Robinson M D, McCarthy D J, Smyth G K. edgeR: a Bioconductor package for differential expression analysis of digital gene expression data. Bioinformatics (Oxford, England) 2010; 26:139-40). Gene lists were analyzed through use of QIAGEN's Ingenuity® Pathway Analysis (IPA, QIAGEN, Redwood City, Calif. http://www.qiagen.com/ingenuity). […]

[3] = unweighted Unifrac distance metric, day 7

For `c1ccc2[nH]ccc2c1` [Indole, indole], the NF-κB signaling [1] is given as “inhibit”, the “anti-inflammatory effects and expression of genes associated with tight cell junctions” value ([1]; in vitro, earlier work of the inventors) is given as “has anti-inflammatory effects on intestinal epithelial cells and upregulates expression of genes associated with tight cell junctions” and the “Magnitude of change in fecal concentration between Days 0 and 7” value ([2]; Indole, group effect ↑) is given as 5.3. For the same compound, the “fecal indole concentrations relative to controls” value ([2]; feces) was “significantly more indole”, the “abundance of members of the phyla Firmicutes and Bacteroidetes” value (fecal microbiota; fecal 16S rRNA sequences, Day 0 vs Day 7) was “no significant difference” and the mean % abundance (fecal microbiota; phylum Unassigned, Other) was 1.90E−03%. The mean % abundance (fecal microbiota; phylum k_Bacteria, Other) was 3.81E−03%, the mean % abundance (fecal microbiota; phylum k_Bacteria, p_Acidobacteria) was 0% and the mean % abundance (fecal microbiota; phylum k_Bacteria, p_Actinobacteria) was 0.0381%. For the same compound, the mean % abundance (fecal microbiota; phylum k_Bacteria, p_Bacteroidetes) was 24.6%, the mean % abundance (fecal microbiota; phylum k_Bacteria, p_Cyanobacteria) was 9.51E−03% and the mean % abundance (fecal microbiota; phylum k_Bacteria, p_Firmicutes) was 74.7%. For the same compound, the mean % abundance (fecal microbiota; phylum k_Bacteria, p_Proteobacteria) was 0.0285%, the mean % abundance (fecal microbiota; phylum k_Bacteria, p_Tenericutes) was 0.656% and the mean % abundance (fecal microbiota; phylum k_Bacteria, p_Verrucomicrobia) was 1.90E−03%. For the same compound, the “Pairwise ANOSIM R-value vs Control” value (fecal microbiota; [3]) was 0.2, the “Pairwise ANOSIM R-value vs NSAID” value (fecal microbiota; [3]) was 0.2615 and the “Pairwise ANOSIM R-value vs NSAID + Indole” value (fecal microbiota; [3]) was 0.1938. The microscopic pathology scores (C57BL/6J mice) was “not different” and the “transcription of pro-inflammatory cytokines (IL-1α, IL-1β, TNF, IL-6) and chemokines (CXCL1, CXCL3, CXCL2, CXCL5, CCL2, CCL7)” value (small intestinal mucosa) was “not significantly different than control mice”.
